# According to patent US20140017336A1, “CO-ADMINISTRATION OF ARSENIC COMPOUNDS AND ANTI-HERPES VIRUS ANTI-VIRALS” (priority 2011, published 2014):
# “Also recorded” adds a separate entry of the source.
# Tests used:
# [1] = tested on: LCL<EBV1-13> cells; assay type: cell-based, human; conditions: 45 μM GCV, 1.0 nM ATO
# [2] = tested on: MUTU1<DNE1> cells (EBV-negative); test: Viable cell count (trypan blue exclusion), MUTU1<DNE1> cells; assay type: cell-based, human; conditions: 10 nM or 100 nM ATO, 2 and 3 days
# [3] = tested on: EBV immediate early protein Zta; test: Zta immunofluorescence in EBV infected A549 cells; assay type: cell-based, Epstein-Barr virus
# Method: A549 cells were plated on 8-chambered Lab-Tek slides at 3×10^4 cells per well; chemical treatment began 24 hours after plating. At specified time points, cells were rinsed twice with PBS and fixed in 4% paraformaldehyde (freshly diluted from 16%, Electron Microscopy Science, Hatfield, Pa.) for 10 min at room temperature. The cells were then rinsed twice with PBS and permeabilized with 0.5% Triton™ X100 (Sigma) in PBS for 15 min at room temperature. Primary antibodies were applied at specified concentrations overnight in a humidified chamber at 4° C. Following 3 rinses in PBS, secondary antibodies were diluted 1:500 and applied for 1 hour at room temperature. The chambers were removed and Vectashield® with DAPI (Vector Laboratories, Burlingame, Calif. #H1200) was applied with cover slip mount. […]
# To investigate the ability of ATO to disrupt PML NB in EBV infected A549 cells, cells were treated with varying doses of ATO for 24 hours and PML NBs were imaged. […] To assess whether EBV positivity affected PML protein levels, cell fractions from two separate EBV infections (A549<EBV>2C and A549<EBV>3A) and uninfected parental A549 cells were analyzed by western blot. […] To quantify the increase in Zta expression, mRNA isolated from A549<EBVBX1>3A cells treated with varying doses of ATO for 72 hours was analyzed by qRT-PCR. […]
# [4] = molecular target: T1, PML NB (Homo sapiens, UniProt P29590); assay type: cell-based
# T1 construct: CNE1 cells were infected with the BX-1 strain of EBV and PML-NBs were imaged by fluorescent microscopy; endogenous in cells; host or cells: CNE1<EBV-BX1> (EBV-infected CNE1) and uninfected parental CNE1
# T1 sequence (P29590 1-882): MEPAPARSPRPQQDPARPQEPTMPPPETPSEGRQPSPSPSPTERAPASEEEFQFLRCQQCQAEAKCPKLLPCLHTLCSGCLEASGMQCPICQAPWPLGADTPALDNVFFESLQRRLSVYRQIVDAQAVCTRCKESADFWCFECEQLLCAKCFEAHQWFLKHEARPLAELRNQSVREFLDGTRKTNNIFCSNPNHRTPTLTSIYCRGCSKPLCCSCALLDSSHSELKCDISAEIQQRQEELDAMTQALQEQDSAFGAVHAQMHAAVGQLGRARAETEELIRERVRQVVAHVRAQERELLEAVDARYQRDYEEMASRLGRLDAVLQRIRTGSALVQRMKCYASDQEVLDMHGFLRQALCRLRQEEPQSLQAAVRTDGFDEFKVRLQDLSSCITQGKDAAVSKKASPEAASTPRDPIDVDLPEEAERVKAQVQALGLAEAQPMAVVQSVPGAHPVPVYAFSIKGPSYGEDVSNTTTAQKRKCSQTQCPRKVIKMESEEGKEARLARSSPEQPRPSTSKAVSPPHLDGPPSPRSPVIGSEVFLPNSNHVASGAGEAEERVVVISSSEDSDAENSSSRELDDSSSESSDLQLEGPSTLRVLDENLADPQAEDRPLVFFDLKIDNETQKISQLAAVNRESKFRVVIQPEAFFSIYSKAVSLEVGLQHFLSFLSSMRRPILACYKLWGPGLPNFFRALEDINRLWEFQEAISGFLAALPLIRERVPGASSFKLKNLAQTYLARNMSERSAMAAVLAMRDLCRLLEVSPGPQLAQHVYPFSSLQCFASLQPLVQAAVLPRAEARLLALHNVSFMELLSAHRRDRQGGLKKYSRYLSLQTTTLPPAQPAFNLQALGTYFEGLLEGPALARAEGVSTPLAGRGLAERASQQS
substance,measurement,setting,value
arsenic trioxide [ATO],viable cells after a third day of treatment compared with two days,[1],barely changed
same,"viable cells, EBV-negative MUTU cells",[2],No effect
same,cells staining positively for Zta,"[3]; day 8, 10 nM ATO plus or minus GCV",100%
same,"number of Zta positive cells, dose response","[3]; varying doses of ATO, 72 hours (3 days), two separate EBV infections of A549 cells",increase in the number of Zta positive cells in an ATO dose responsive manner; also recorded: increases the number of Zta positive cells in a dose dependent manner
same,PML NB immunofluorescence signal,[4]; 1.0 nM ATO,below that of baseline untreated uninfected cells
same,ATO concentration sufficient to disrupt PML NBs,[4]; EBV positive CNE1 cells,1 nM
same,"PML NB immunofluorescence intensity, dose response",[4]; EBV positive CNE1 cells,diminished by exposure to ATO in a dose dependent manner
